“And” between values parts separate entries of the source, which are not always exact repeats. Equal values may be shown once. Starred links: 1 amine or outer side, 2 acyl side, 3 side chain; linkers in the order of their positions; H or OH if unused. Non-standard residues stand in square brackets, D forms with d. Residues, ends and D or L forms follow the SMILES beside them. *: point of attachment. hPhe = N[C@@H](CCc1ccccc1)C(=O)O; Morpholide = C1CN(*)CCO1; CO = O=C([*:1])[*:2]; CH2F = FC*
Key:
[1] = biological target: cathepsin B (Rattus norvegicus, UniProt P00787); test: Cathepsin B activity in homogenates of liver lobes of rats after oral FMK treatment; assay type: in vivo; settings: 20 mg FMK per kg body weight daily, 14 days, all four lobes
Protocol: (§1) Sixteen rats were treated orally with 20 mg FMK per kg body weight dissolved in PBS and 5% dimethylformamide daily for 14 days starting one week before administration of the CC531 cells and continuing until sacrifice. Oral administration was performed directly into the stomach with a plastic tube attached to a syringe. Dosage and type of treatment were selected on the basis of previous experiments in which rats were treated with FMK-related inhibitors of cathepsins (34,40,53). The other 16 animals were treated similarly with PBS and dimethylformamide only. The LD50 of this type of FMK is at least 20-fold higher than the dosages used in the present experiment (40,53).
Cathepsin B activity was determined in homogenates obtained from each individual liver lobe of all rats according to Cox and Eley (56) with the use of the fluorogenic substrate CBZ-Ala-Arg-Arg-7-amino-4-trifluoromethylcoumarin (Enzyme Systems Products, Dublin, Calif.).
Whether or not the two weeks of oral treatment with the inhibitor had the same effect on cathepsin B activity in all liver lobes was determined.

[2] = test system: CC531 colon cancer cells; test: Colon cancer (CC531) metastasis in rat liver: number and volume of tumors per lobe; assay type: in vivo
Protocol: Induction of Metastasis in Rat Liver
Colon carcinoma tumors were induced in rat liver by injection of a single cell suspension containing 1×10^6 CC531 cells into the portal vein of 32 mature male WAG-Rij rats, weighing 180-200 g (Broekman, Someren, The Netherlands) as described previously in detail (46,51,52).
Treatment of Rats with FMK
as §1
Preparation of Cryostat Sections of Liver
Seven days after administration of CC531 cells, the animals were weighed and sacrificed with an overdose of sodium pentobarbital. Livers were removed immediately, the individual lobes were weighed and dissected and cut into small pieces (up to 5 mm thick) according to a rigid dissection scheme. The left lateral lobe was cut into eight pieces, the median lobe into nine pieces, the right lateral and caudate lobes into four pieces. Tissue fragments were frozen in liquid nitrogen and the material was kept at -80° C. until further use. Twenty-one sites were randomly selected in all lobes of each liver before the experiments were carried out. From these sites, sections (8 μm thick) were cut on a motor-drivencryostat with a rotary retracting microtome (Bright, Huntingdon, UK) at a constant but low speed and a cabinet temperature of -25° C. Sections were picked up onto clean glass slides and stored in the cryostat cabinet until used. These methods have been described in detail in Reference 54.
Staining of Tissue Sections
To facilitate recognition of cancer cells, cryostat sections were stained either with the periodic acid Schiff (PAS) reaction (54) or immunohistochemically using the lectin Ulex europaeus agglutinin I (Dako, Glostrup, Denmark), a selective marker of CC531 cells in rat (51,55). Immunocompetenet cells, endothelial cells and components of the extracellular matrix were localized with a panel of antibodies (Table 1) as described in detail by Griffini et al. (52). Control incubations were performed by replacing the first antibodies by non-immune sera in the same dilutions.
For calculation of the number and percentage volume of tumors in each liver lobe, the 8 micron thick sections were analyzed morphometrically using a Quantimet Q500 (Leica, Cambridge, UK) after staining with the lectin Ulex for the detection of cancer cells. The number of tumors was expressed per unit volume of liver tissue ±standard error of the mean or as ratio of the number of tumors in FMK-treated rats and those in untreated rats (×100). The percentage volume of tumors was expressed as the ratio of the volume of tumors and the total volume of the liver tissue including tumors ±standard error of the mean. Statistical analysis was performed with the 2-tailed Mann-Whitney test using the software program JPM (SAS Institute, Cary, N.C.).
The number of tumors is expressed per unit volume of liver tissue ± SEM or as the ratio of the number of tumors in treated rats compared with untreated rats (×100; %) as determined morphometrically in 8 μm thick cryostat sections stained with the lectin Ulex europaeus agglutinin I. Differences in number of tumors in left lateral and median lobes but not in right lateral and caudate lobes between treated and untreated animals were significant (P=0.006 and P=0.1, respectively). […]

[3] = Body weight and liver weight of FMK-treated rats; assay type: in vivo, rat; settings: 20 mg FMK/kg daily oral 14 days
Protocol: as §1
Seven days after administration of CC531 cells, the animals were weighed and sacrificed with an overdose of sodium pentobarbital. Livers were removed immediately, the individual lobes were weighed and dissected and cut into small pieces (up to 5 mm thick) according to a rigid dissection scheme. The left lateral lobe was cut into eight pieces, the median lobe into nine pieces, the right lateral and caudate lobes into four pieces. […]
Significant differences between the caudate lobe and the other liver lobes with respect to the endothelial compartment or distribution patterns of extracellular matrix compounds (see Table 1 for specification of parameters investigated) could not be detected either.

[4] = cited from earlier work
[5] = cited from earlier work; remark: listed apart in the source
[6] = 20 mg FMK/kg daily oral 14 days
[7] = +FMK, 20 mg/kg daily oral 14 days, ± SEM, n = 16
[8] = weighted by relative lobe wet weight

Chain of cathepsin B (P00787 80-333): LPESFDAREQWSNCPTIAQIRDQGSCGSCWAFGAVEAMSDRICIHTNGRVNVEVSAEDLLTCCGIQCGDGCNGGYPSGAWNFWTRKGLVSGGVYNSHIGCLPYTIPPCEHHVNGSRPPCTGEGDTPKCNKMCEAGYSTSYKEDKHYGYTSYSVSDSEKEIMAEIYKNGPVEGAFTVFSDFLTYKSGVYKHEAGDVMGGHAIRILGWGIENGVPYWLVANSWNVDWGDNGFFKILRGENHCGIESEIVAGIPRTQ

## O=C(CF)[C@H](CCc1ccccc1)NC(=O)[C@H](Cc1ccccc1)NC(=O)N1CCOCC1 [FMK, Mu-Phe-homoPhe-fluoro-methylketone] ({Morpholide-CO}-Phe-[hPhe]-CH2F)
[1]
  inhibition of cathepsin B activity in liver lobes: ~50% and 51±14%
[2]; [6]
  ratio of number of tumors in treated vs untreated rats (×100), caudate lobe: 278%
  ratio of number of tumors in treated vs untreated rats (×100), left lateral lobe: 24%
  ratio of number of tumors in treated vs untreated rats (×100), median lobe: 24%
  ratio of number of tumors in treated vs untreated rats (×100), right lateral lobe: 91%
  ratio of percentage volumes in treated and untreated rats (×100), caudate lobe: 283%
  ratio of percentage volumes in treated and untreated rats (×100), left lateral lobe: 17%
  ratio of percentage volumes in treated and untreated rats (×100), median lobe: 3%
  ratio of percentage volumes in treated and untreated rats (×100), right lateral lobe: 35%
[2]; 20 mg FMK/kg per day
  average size of tumors in large lobes, treated relative to untreated: 40%
  effect on number of tumors in the caudate lobe: increased rather than decreased, although the difference was not significant
  effect on size of tumors in the caudate lobe: not affected
  number of tumors per unit volume in caudate lobe vs other lobes in treated rats: 20 fold
  reduction of total volume of tumors in the large lobes (average): 80%
[2]; 20 mg FMK/kg per day, one week before until one week after cells
  reduction of number of tumors in the large lobes (average): 60%
[2]; [7]
  number of tumors, caudate lobe: 14.2 ± 7.5 per unit volume of liver tissu
  number of tumors, left lateral lobe: 0.5 ± 0.2 per unit volume of liver tissu
  number of tumors, median lobe: 0.4 ± 0.2 per unit volume of liver tissu
  number of tumors, right lateral lobe: 1.0 ± 0.4 per unit volume of liver tissu
  percentage volume of tumors, caudate lobe: 49.8 ± 38.5%
  percentage volume of tumors, left lateral lobe: 1.4 ± 0.5%
  percentage volume of tumors, median lobe: 0.3 ± 0.6%
  percentage volume of tumors, right lateral lobe: 1.1 ± 0.2%
[2]; in vivo treatment with FMK
  effect on number or size of metastases, caudate lobe: does not reduce number or size of metastases
[2]; [8]
  reduction of mean number of tumors in the entire liver: 35%
  reduction of mean volume of tumors in the entire liver: 57%
[3]
  effect on body weight, total liver weight or weight of individual lobes: did not affect body weight, total liver weight or the weight of the individual lobes
[4]
  toxicity: non-toxic
[4]; this type of FMK
  LD50 relative to the dosages used (20 mg/kg): at least 20 fold
[5]
  water solubility: water-soluble
